Results taken from publication PMC3433420 (PLoS ONE, 2012).
pKd: −log10 of the molar value. Residues, ends and D or L forms follow the SMILES beside them.

Experiments:
[1] = target: T1, PTPN11-NC tandem SH2 domains (Homo sapiens, UniProt Q06124); experiment: FP saturation binding assay
T1 sequence (Q06124 6-216 limits assumed): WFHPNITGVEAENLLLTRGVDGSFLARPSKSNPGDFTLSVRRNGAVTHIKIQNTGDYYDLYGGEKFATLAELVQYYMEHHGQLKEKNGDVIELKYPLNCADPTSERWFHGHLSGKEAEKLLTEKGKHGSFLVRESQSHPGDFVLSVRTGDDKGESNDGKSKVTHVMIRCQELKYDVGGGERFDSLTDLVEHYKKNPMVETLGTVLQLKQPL

[2] = target: PIK3R2-NC tandem SH2 domains (Homo sapiens, UniProt O00459); experiment: FP saturation binding assay
[3] = target: T2, SH2 and PTB domains (Homo sapiens, UniProt P16885); experiment: In-house protein microarrays (with or without 5 mM DTT), protein named per line; type: binding; details: array fabrication # 39329
T2 construct: thioredoxin; made in house; host or cells: BL21(DE3)pLysS E. coli
T2 sequence (P16885 1-1265): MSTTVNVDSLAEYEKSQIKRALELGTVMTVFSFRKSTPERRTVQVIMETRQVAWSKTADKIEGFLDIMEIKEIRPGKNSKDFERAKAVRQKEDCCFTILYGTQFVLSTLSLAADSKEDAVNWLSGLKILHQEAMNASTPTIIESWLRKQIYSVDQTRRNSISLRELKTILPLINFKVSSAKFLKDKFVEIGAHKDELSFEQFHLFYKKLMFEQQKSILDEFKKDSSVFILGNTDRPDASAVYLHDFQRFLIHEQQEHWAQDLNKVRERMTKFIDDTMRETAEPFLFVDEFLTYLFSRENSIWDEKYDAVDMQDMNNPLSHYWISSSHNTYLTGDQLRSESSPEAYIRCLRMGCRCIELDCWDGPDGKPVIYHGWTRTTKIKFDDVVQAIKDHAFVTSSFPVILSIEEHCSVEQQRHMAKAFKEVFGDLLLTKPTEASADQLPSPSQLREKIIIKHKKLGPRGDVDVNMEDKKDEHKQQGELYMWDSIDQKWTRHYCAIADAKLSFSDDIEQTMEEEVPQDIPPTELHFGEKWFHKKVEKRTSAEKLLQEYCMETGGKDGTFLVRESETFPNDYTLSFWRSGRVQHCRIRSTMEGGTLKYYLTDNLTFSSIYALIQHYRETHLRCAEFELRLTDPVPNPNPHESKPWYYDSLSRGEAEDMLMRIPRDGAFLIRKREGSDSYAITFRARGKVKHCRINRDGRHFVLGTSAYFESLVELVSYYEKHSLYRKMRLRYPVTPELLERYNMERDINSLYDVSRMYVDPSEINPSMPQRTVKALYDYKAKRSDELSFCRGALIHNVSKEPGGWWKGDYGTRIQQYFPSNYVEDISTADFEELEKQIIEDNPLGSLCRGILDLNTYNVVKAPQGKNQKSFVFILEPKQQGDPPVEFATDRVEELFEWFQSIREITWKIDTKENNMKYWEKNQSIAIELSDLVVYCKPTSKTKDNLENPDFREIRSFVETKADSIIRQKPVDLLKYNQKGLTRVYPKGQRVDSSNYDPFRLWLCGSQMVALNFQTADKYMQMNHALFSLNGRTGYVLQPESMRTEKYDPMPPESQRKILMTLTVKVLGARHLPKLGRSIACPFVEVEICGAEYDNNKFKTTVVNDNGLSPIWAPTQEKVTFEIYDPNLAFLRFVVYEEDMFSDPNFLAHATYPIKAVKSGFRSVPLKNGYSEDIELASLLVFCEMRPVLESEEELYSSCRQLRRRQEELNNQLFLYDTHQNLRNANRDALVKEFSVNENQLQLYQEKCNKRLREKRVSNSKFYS
Description: (§1) 300 pL of purified recombinant proteins and a thioredoxin tag control were spotted at a concentration of ∼40 µM in duplicate onto aldehyde-coated microscope slides (Erie Scientific Company, Portsmouth, NH) using a Nano-Plotter (NP) 2.1/E noncontact microarrayer (GeSiM, Munich, Germany). 16 identical microarrays per slide were printed in a 2×8 (column by row) format with distances of 9 mm between individual arrays; each array consisted of a 14×14 configuration of spots 400 µm apart. Following printing at a constant humidity level of 50%, slides were desiccated overnight and stored at −80°C. For peptide probing, array slides were transferred to 96-well microplates (TeleChem International, Inc., Sunnyvale, CA) and sandwiched with silicone gaskets. Prior to peptide addition, aldehyde sites were quenched with buffer B (20 mM HEPES, 100 mM KCl, 0.1% Tween-20, 5 mM DTT, pH 7.8) containing 1% bovine serum albumin (BSA) (w/v) for one hour at room temperature; moderate agitation was applied in a plate shaker (IKA, Germany) to displace glycerol from the surface area of protein sample spots. […] The arrays were subsequently washed once with 300 µL of buffer B and once with 300 µL of ddH2O. Residual water was removed by centrifugation; slides were stored under desiccation in the dark until analysis.
(§2) Microarray slides were scanned at a resolution of 10 µm using a GenePix 4000B microarray scanner and analyzed using GenePix Pro v6.0 software (Molecular Devices, Sunnyvale, CA). To independently visualize protein spots irrespective of peptide binding, samples were printed simultaneously with 400 nM of Cyanine-5 (Cy5) labeled bovine serum albumin (BSA). […] Following spot layout identification via Cy5 labeled BSA, the mean fluorescence intensity of rhodamine for duplicate protein spots was quantified and normalized by subtracting the corresponding mean fluorescence intensity of thioredoxin. Normalized fluorescence values were then imported into MATLAB and KDs determined as previously described.

[4] = target: T3, SH2 and PTB domains (Homo sapiens, UniProt O60880); experiment: as above; type: binding; details: protein SH2D1A, array fabrication # 39329
T3 construct: thioredoxin; made in house; host or cells: BL21(DE3)pLysS E. coli
T3 sequence (O60880 1-128): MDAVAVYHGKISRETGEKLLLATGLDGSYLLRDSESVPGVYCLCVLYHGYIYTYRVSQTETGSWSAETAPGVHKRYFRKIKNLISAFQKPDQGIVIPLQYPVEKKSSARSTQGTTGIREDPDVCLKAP
Description: as §1, §2

[5] = target: T4, SH2 and PTB domains (Homo sapiens, UniProt P51451); experiment: as above; type: binding; details: protein BLK
T4 construct: thioredoxin; made in house; host or cells: BL21(DE3)pLysS E. coli
Description: as §1, §2

[6] = target: T5, SH2 and PTB domains (Homo sapiens, UniProt O43639); experiment: as above; type: binding; details: protein NCK2, array fabrication # 39329
T5 construct: thioredoxin; made in house; host or cells: BL21(DE3)pLysS E. coli
Description: as §1, §2

[7] = target: T6, SH2 and PTB domains (Homo sapiens, UniProt Q92569); experiment: as above; type: binding
T6 construct: thioredoxin; made in house; host or cells: BL21(DE3)pLysS E. coli
Description: as §1, §2

[8] = protein PLCG2-NC, PM assay replicate # 39336

Chain of PIK3R2-NC tandem SH2 domains (O00459 330-716 limits assumed): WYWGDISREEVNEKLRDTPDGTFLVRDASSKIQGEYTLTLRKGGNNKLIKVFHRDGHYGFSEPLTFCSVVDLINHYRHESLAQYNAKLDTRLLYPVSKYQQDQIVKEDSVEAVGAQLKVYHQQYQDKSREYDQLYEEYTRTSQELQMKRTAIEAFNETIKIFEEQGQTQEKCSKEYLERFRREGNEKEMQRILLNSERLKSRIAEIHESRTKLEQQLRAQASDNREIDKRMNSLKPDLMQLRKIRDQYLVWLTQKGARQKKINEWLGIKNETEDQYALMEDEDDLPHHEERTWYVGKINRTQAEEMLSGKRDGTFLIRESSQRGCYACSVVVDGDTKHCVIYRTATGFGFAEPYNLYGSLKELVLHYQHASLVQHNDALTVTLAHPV
T4 sequence (P51451 whole entry, the tested form may be a part): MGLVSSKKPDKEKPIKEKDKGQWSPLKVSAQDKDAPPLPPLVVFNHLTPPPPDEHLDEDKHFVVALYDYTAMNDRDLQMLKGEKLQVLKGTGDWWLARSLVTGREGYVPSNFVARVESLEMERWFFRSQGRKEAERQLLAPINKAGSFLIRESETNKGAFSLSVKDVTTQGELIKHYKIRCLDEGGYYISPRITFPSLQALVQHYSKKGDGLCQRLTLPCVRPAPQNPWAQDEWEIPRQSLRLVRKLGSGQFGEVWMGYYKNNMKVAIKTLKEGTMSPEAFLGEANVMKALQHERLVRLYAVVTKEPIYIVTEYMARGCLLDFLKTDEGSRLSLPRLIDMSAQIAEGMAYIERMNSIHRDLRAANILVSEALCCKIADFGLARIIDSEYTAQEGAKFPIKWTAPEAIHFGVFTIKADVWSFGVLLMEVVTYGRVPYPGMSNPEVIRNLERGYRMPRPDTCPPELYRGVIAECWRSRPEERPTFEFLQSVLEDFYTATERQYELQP
T5 sequence (O43639 whole entry, the tested form may be a part): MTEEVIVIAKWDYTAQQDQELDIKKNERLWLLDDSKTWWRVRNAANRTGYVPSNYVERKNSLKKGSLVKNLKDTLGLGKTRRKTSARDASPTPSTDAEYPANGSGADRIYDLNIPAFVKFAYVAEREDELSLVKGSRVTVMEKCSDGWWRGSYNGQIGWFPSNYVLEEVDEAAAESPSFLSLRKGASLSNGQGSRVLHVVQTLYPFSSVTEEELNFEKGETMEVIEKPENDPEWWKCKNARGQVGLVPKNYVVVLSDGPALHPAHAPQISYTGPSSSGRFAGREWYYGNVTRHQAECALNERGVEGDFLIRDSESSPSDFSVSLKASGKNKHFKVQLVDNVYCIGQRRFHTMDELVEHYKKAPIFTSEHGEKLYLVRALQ

CC(C)C[C@H](NC(=O)[C@H](Cc1ccc(OP(=O)(O)O)cc1)NC(=O)[C@H](CCC(=O)O)NC(=O)[C@H](CCC(=O)O)NC(=O)[C@H](C)NC(=O)[C@@H](N)CC(=O)O)C(=O)N[C@H](C(=O)N1CCC[C@H]1C(=O)N[C@@H](CCC(N)=O)C(=O)N[C@@H](CCC(N)=O)C(=O)NCC(=O)N[C@@H](Cc1ccccc1)C(=O)N[C@@H](CC(=O)O)C(=O)O)C(C)C [ErbB2 1023 13-mer] (HELM PEPTIDE1{D.A.E.E.[O=C([C@H](Cc1ccc(OP(=O)(O)O)cc1)N[*:1])[*:2]].L.V.P.Q.Q.G.F.D}$$$$V2.0)
pKd [1]: 4.97 | pKd [2]: 5.22

CC(C)[C@H](NC(=O)[C@H](CC(=O)O)NC(=O)[C@@H]1CCCN1C(=O)[C@H](CCC(N)=O)NC(=O)[C@H](CC(N)=O)NC(=O)[C@@H](NC(=O)[C@H](Cc1ccc(OP(=O)(O)O)cc1)NC(=O)[C@H](CCC(=O)O)NC(=O)[C@@H]1CCCN1C(=O)[C@H](CCC(N)=O)NC(=O)[C@@H]1CCCN1)C(C)C)C(=O)N[C@@H](CCCNC(=N)N)C(=O)N[C@@H](CC(=O)O)C(=O)O [ErbB2 1139 13-mer] (HELM PEPTIDE1{P.Q.P.E.[O=C([C@H](Cc1ccc(OP(=O)(O)O)cc1)N[*:1])[*:2]].V.N.Q.P.D.V.R.D}$$$$V2.0)
pKd [1]: 5.06 | pKd [2]: 5.24

CC(C)C[C@H](NC(=O)[C@H](CC(N)=O)NC(=O)[C@@H](N)CC(=O)O)C(=O)N[C@@H](Cc1ccc(O)cc1)C(=O)N[C@@H](Cc1ccc(OP(=O)(O)O)cc1)C(=O)N[C@@H](Cc1c[nH]c2ccccc12)C(=O)N[C@@H](CC(=O)O)C(=O)N[C@@H](CCC(N)=O)C(=O)N[C@@H](CC(=O)O)C(=O)N1CCC[C@H]1C(=O)N1CCC[C@H]1C(=O)N[C@@H](CCC(=O)O)C(=O)N[C@@H](CC(=O)O)C(=O)O [ErbB2 1222 13-mer] (HELM PEPTIDE1{D.N.L.Y.[O=C([C@H](Cc1ccc(OP(=O)(O)O)cc1)N[*:1])[*:2]].W.D.Q.D.P.P.E.D}$$$$V2.0)
pKd [1]: 5.02 | pKd [2]: 5.11

CC(C)C[C@H](NC(=O)[C@@H]1CCCN1)C(=O)N[C@@H](CCC(N)=O)C(=O)N[C@@H](CCCNC(=N)N)C(=O)N[C@@H](Cc1ccc(OP(=O)(O)O)cc1)C(=O)N[C@@H](CO)C(=O)N[C@@H](CCC(=O)O)C(=O)N[C@@H](CC(=O)O)C(=O)N1CCC[C@H]1C(=O)N[C@H](C(=O)N[C@H](C(=O)N1CCC[C@H]1C(=O)N[C@@H](CC(=O)O)C(=O)O)C(C)C)[C@@H](C)O [ErbB2 pY1112] (HELM PEPTIDE1{P.L.Q.R.[O=C([C@H](Cc1ccc(OP(=O)(O)O)cc1)N[*:1])[*:2]].S.E.D.P.T.V.P.D}$$$$V2.0)
Kd ([3]; protein PLCG2-NC, PM assay replicate # 39331): 5.53 µM | Kd [3, 8]: 0.93 µM | Kd ([4]; PM assay replicate # 39331): 1.72 µM | Kd ([4]; PM assay replicate # 39336): 9.67 µM

CC(C)C[C@H](NC(=O)[C@@H]1CCCN1C(=O)[C@H](C)NC(=O)[C@@H](NC(=O)[C@H](Cc1ccc(OP(=O)(O)O)cc1)NC(=O)CNC(=O)[C@H](CC(=O)O)NC(=O)[C@@H](NC(=O)[C@@H](N)CCC(=O)O)[C@@H](C)O)C(C)C)C(=O)N[C@H](C(=O)N[C@@H](CS)C(=O)N[C@@H](CO)C(=O)N[C@@H](CC(=O)O)C(=O)O)[C@@H](C)O [ErbB2 pY1127]
Kd ([5]; PM assay replicate # 39336, array fabrication # 39329): 3.20 µM | Kd ([5]; PM assay replicate # 39337, array fabrication # 39329): 0.46 µM | Kd ([5]; PM assay replicate # 39603, array fabrication # 39392): 2.00 µM | Kd ([6]; PM assay replicate # 39336): 1.56 µM | Kd ([6]; PM assay replicate # 39337): 0.46 µM | Kd ([3]; protein PLCG2-N, PM assay replicate # 39337): 4.16 µM | Kd [3, 8]: 1.60 µM | Kd ([3]; protein PLCG2-NC, PM assay replicate # 39337): 0.58 µM | Kd ([7]; protein PIK3R3-C, PM assay replicate # 39336, array fabrication # 39329): 1.21 µM | Kd ([7]; protein PIK3R3-C, PM assay replicate # 39337, array fabrication # 39329): 2.04 µM | Kd ([7]; protein PIK3R3-N, PM assay replicate # 39336, array fabrication # 39329): 0.00698 µM | Kd ([7]; protein PIK3R3-N, PM assay replicate # 39337, array fabrication # 39329): 0.0758 µM | Kd ([7]; protein PIK3R3-NC, PM assay replicate # 39336, array fabrication # 39329): 0.10 µM | Kd ([7]; protein PIK3R3-NC, PM assay replicate # 39337, array fabrication # 39329): 0.0151 µM | Kd ([7]; protein PIK3R3-NC, PM assay replicate # 39603, array fabrication # 39392): 0.05 µM

CSCC[C@H](NC(=O)[C@H](Cc1ccc(OP(=O)(O)O)cc1)NC(=O)[C@H](CCC(=O)O)NC(=O)[C@H](Cc1ccc(O)cc1)NC(=O)CNC(=O)[C@@H](N)CC(C)C)C(=O)N[C@@H](CC(=O)O)C(=O)N[C@H](C(=O)NCC(=O)N[C@@H](CO)C(=O)N[C@@H](CC(=O)O)C(=O)N[C@@H](CC(C)C)C(=O)N[C@@H](CC(=O)O)C(=O)O)C(C)C [ErbB3 1224 13-mer] (HELM PEPTIDE1{L.G.Y.E.[O=C([C@H](Cc1ccc(OP(=O)(O)O)cc1)N[*:1])[*:2]].M.D.V.G.S.D.L.D}$$$$V2.0)
pKd [2]: 5.48
